EP1144365B1 (TANABE SEIYAKU CO., LTD., priority 1998, dated 2000)

Assays:
α4β1 integrin = target: T1, α4β1 integrin (Homo sapiens, UniProt P05556+P13612); assay: Jurkat-Endothelial Cell Adhesion Assay (Jurkat EC); format: cell-based; conditions: Jurkat cell adhesion to IL-1 stimulated endothelial cell monolayers
T1 construct: a T-cell line, Jurkat, known to express the α4β1 integrin; host or cells: Jurkat T-cell line
How it was run: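 BCECF-loaded Jurkat T cells (5 x 10^5) mixed with compound, generally 100, 20, 5 and 1.25 µM, in DMEM-HSA, added to HUVEC monolayers prestimulated 4 h with 0.1 ng/ml IL-1. After washing, adherent-cell fluorescence read; % adhesion relative to no-compound control set at 100%.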

α4β1 = target: T2, α4β1 (Homo sapiens, UniProt P05556+P13612); assay: Jurkat-CS-1 assay; format: cell-based; conditions: Jurkat cell adhesion to immobilized CS-1 derived peptide
T2 construct: 100 µl of Jurkat cells (2.5 x 10^6 cells/ml) in DMEM plus BSA; host or cells: Jurkat T-cell line
T2 sequence (P13612 34-1032): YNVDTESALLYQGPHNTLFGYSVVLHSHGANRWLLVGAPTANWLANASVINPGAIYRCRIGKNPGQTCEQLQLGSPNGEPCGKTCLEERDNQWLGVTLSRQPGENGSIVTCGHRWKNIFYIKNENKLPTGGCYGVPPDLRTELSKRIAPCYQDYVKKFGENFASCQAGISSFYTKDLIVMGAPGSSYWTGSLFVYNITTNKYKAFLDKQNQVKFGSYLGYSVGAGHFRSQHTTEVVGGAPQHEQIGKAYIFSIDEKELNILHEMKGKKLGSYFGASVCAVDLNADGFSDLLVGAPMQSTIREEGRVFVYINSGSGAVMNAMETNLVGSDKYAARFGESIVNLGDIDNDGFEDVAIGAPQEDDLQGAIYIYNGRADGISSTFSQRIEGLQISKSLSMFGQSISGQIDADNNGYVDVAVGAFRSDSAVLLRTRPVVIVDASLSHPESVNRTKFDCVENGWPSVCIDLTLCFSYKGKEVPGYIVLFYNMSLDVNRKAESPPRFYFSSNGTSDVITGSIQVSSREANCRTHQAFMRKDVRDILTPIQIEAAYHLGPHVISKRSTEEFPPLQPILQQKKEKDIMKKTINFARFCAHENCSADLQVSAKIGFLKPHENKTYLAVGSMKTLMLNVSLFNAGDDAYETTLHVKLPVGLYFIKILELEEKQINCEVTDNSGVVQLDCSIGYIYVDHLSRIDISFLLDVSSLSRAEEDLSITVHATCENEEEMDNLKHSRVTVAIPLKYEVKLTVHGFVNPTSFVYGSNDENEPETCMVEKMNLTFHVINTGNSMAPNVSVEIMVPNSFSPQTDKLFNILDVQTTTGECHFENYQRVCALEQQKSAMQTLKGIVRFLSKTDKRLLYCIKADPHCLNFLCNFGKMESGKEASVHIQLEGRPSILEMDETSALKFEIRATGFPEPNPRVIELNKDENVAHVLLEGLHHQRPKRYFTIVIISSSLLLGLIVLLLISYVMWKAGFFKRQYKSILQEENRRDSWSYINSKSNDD
T2 sequence (P05556 21-798): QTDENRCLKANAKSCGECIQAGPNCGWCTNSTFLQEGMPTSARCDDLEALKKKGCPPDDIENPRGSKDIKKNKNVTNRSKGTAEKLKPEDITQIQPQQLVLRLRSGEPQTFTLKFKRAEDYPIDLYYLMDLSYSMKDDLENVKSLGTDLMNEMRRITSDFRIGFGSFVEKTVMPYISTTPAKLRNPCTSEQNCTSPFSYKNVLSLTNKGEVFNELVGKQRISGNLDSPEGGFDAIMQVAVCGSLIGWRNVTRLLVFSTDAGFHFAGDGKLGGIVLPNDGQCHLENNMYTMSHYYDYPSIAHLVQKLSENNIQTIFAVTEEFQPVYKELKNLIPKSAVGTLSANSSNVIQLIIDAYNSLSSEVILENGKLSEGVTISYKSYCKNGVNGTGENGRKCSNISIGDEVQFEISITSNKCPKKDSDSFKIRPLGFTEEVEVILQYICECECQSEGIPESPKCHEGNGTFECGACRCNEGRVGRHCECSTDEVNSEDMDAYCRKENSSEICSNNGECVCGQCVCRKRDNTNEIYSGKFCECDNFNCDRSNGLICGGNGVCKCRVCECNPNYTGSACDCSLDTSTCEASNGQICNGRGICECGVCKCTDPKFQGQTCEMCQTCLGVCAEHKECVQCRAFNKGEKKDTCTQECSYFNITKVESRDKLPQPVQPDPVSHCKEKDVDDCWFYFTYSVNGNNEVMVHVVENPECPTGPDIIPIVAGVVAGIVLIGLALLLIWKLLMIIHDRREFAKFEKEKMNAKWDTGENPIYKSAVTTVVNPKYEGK

T1 sequence (P13612 34-1032): as the sequence (P13612 34-1032) above
T1 sequence (P05556 21-798): as the sequence (P05556 21-798) above

Row | IC50 (α4β1 integrin) | IC50 (α4β1) | Structure (SMILES)
1 | 800 to 5000 nM | 80 to 500 nM | O=C(Nc1ccc(C[C@H](NC(=O)[C@H]2CC[C@@H](C(=O)O)C2)C(=O)O)cc1)c1c(Cl)cccc1Cl (mixture of isomers) [Example 112, N-[cis-(3-Carboxycyclopentyl)carbonyl]-4-[(2,6-dichlorobenzoyl)amino]-L-phenylalanine]
2 | 800 to 5000 nM | 500 to 1000 nM | O=C(O)/C=C/c1cccc(C(=O)N[C@@H](Cc2ccc(NC(=O)c3c(Cl)cccc3Cl)cc2)C(=O)O)c1 [Example 124, N-[[3-[(E)-3-Hydroxy-3-oxo-1-propenyl]phenyl]carbonyl]-4-[(2,6-dichlorobenzoyl)amino]-L-phenylalanine]
3 | 800 to 5000 nM | 80 to 500 nM | O=C(Nc1ccc(C[C@H](NC(=O)N2CCCC(C(=O)O)C2)C(=O)O)cc1)c1c(Cl)cccc1Cl (stereo partly drawn) [Example 115, 1-[[((1S)-1-carboxy-2-[4-[(2,6-dichlorobenzoyl)amino]phenyl]ethyl)amino]carbonyl]-3-piperidinecarboxylic acid]
4 | ≤ 800 nM | ≤ 80 nM | CC1=C(C(=O)N[C@@H](Cc2ccc(NC(=O)c3c(Cl)cccc3Cl)cc2)C(=O)O)C(C)(C)CC/C1=C\C(=O)O [Example 118, N-[[(3E)-3-Carboxymethylene-2,6,6-trimethyl-1-cyclohexen-1-yl]carbonyl]-4-[(2,6-dichlorobenzoyl)amino]-L-phenylalanine]
5 | ≤ 800 nM | ≤ 80 nM | CC1=C(C(=O)N[C@@H](Cc2ccc(OCc3c(Cl)cccc3Cl)cc2)C(=O)O)C(C)(C)CC/C1=C\C(=O)O [Example 119, N-[[(3E)-3-Carboxymethylene-2,6,6-trimethyl-1-cyclohexen-1-yl]carbonyl]-4-O-(2,6-dichlorophenylmethyl)-L-tyrosine]
6 | 800 to 5000 nM | 80 to 500 nM | CC(=O)[C@H]1C[C@H](C(=O)N[C@@H](Cc2ccc(NC(=O)c3ccc(Cl)nc3Cl)cc2)C(=O)O)C1(C)C [Example 106, (1S-trans)-N-[(3-Acetyl-2,2-dimethylcyclobutyl)carbonyl]-4-[[(2,6-dichloro-3-pyridinyl)carbonyl]amino]-L-phenylalanine]
7 | ≤ 800 nM | 80 to 500 nM | O=C(Nc1ccc(C[C@H](NC(=O)N2CCCC(C(=O)O)C2)C(=O)O)cc1)c1c(Cl)cccc1Cl (stereo partly drawn) [Example 114, 1-[[[(1S)-1-carboxy-2-[4-[(2,6-dichlorobenzoyl)amino]phenyl]ethyl]amino]carbonyl]-3-piperidinecarboxylic acid]
8 | ≤ 800 nM | ≤ 80 nM | CC1=C(C(=O)N[C@@H](Cc2ccc(NC(=O)c3c(Cl)cccc3Cl)cc2)C(=O)O)C(C)(C)CC/C1=C\C#N [Example 120, N-[[(3E)-3-Cyanomethylene-2,6,6-trimethyl-1-cyclohexen-1-yl]carbonyl]-4-[(2,6-dichlorobenzoyl)amino]-L-phenylalanine]
9 | 800 to 5000 nM | ≤ 80 nM | O=C(O)C=C1CCC(C(=O)N[C@@H](Cc2ccc(NC(=O)c3c(Cl)cccc3Cl)cc2)C(=O)O)CC1 (stereo partly drawn) [Example 126, N-[[4-(Carboxymethylene)cyclohexyl]carbonyl]-4-[(2,6-dichlorobenzoyl)amino]-L-phenylalanine]
10 | 800 to 5000 nM | 80 to 500 nM | CC(=O)[C@@H]1C[C@H](C(=O)N[C@@H](Cc2ccc(NC(=O)c3ccc(Cl)nc3Cl)cc2)C(=O)O)C1(C)C [Example 107, (1S-cis)-N-[(3-Acetyl-2,2-dimethylcyclobutyl)carbonyl]-4-[[(2,6-dichloro-3-pyridinyl)carbonyl]amino]-L-phenylalanine]

Second part, the molecule before the results:

Row | Structure (SMILES) | IC50 (α4β1 integrin) | IC50 (α4β1)
11 | O=C(Nc1ccc(C[C@H](NC(=O)C2(NC(=O)C3NC(C(=O)O)CS3)CC3CCC2C3)C(=O)O)cc1)c1c(Cl)cccc1Cl (stereo partly shown) [Example 75] | ≤ 800 nM | 80 to 500 nM
12 | CC(=O)CCC(=O)NC1(C(=O)N[C@@H](Cc2ccc(NC(=O)c3c(Cl)cccc3Cl)cc2)C(=O)O)CCCCC1 [Example 53] | ≤ 800 nM | ≤ 80 nM
13 | O=C(/C=C/c1ccc(C(=O)O)cc1)N[C@@H](Cc1ccc(NC(=O)c2c(Cl)cccc2Cl)cc1)C(=O)O [Example 123] | 5000 to 10000 nM | 500 to 1000 nM
14 | CC1(C)[C@@H](C(=O)N[C@@H](Cc2ccc(NC(=O)c3c(Cl)cccc3Cl)cc2)C(=O)O)C[C@H]1C(=O)O [Example 99, (1S-cis)-N-[(3-Carboxy-2,2-dimethylcyclobutyl)carbonyl]-4-[(2,6-dichlorobenzoyl)amino]-L-phenylalanine] | 800 to 5000 nM | 80 to 500 nM
15 | CC(C)(CC(=O)O)CC(=O)NC1(C(=O)N[C@@H](Cc2ccc(NC(=O)c3c(Cl)cccc3Cl)cc2)C(=O)O)CCCCC1 [Example 48] | 800 to 5000 nM | 80 to 500 nM
16 | O=C(O)c1cncc(C(=O)Nc2cccc(C(=O)N[C@@H](Cc3ccc(NC(=O)c4c(Cl)cccc4Cl)cc3)C(=O)O)c2)c1 [Example 44] | 5000 to 10000 nM | 80 to 500 nM
17 | O=C(O)CCC(=O)NC1(C(=O)N[C@@H](Cc2ccc(NC(=O)c3c(Cl)cccc3Cl)cc2)C(=O)O)CCCCC1 [Example 46] | 800 to 5000 nM | 80 to 500 nM
18 | O=C(NC1(C(=O)N[C@@H](Cc2ccc(NC(=O)c3c(Cl)cccc3Cl)cc2)C(=O)O)CC2CCC1C2)c1cc(C(=O)O)[nH]n1 (stereo partly shown) [Example 74] | 800 to 5000 nM | 80 to 500 nM
19 | O=C(Nc1ccc(C[C@H](NC(=O)C2(NC(=O)C3CCCC(C(=O)O)C3)CCCCC2)C(=O)O)cc1)c1c(Cl)cccc1Cl (stereo partly shown) [Example 52] | 800 to 5000 nM | ≤ 80 nM
20 | O=C(O)c1cccc(C(=O)NC2(C(=O)N[C@@H](Cc3ccc(NC(=O)c4c(Cl)cccc4Cl)cc3)C(=O)O)CCCCC2)n1 [Example 62] | 800 to 5000 nM | 80 to 500 nM
21 | O=C(NC1(C(=O)N[C@@H](Cc2ccc(NC(=O)c3c(Cl)cccc3Cl)cc2)C(=O)O)CCCCC1)c1ccc([N+](=O)[O-])o1 [Example 67] | ≤ 800 nM | 80 to 500 nM
22 | O=C(O)c1cccc(C(=O)NC2(C(=O)N[C@@H](Cc3ccc(NC(=O)c4c(Cl)cccc4Cl)cc3)C(=O)O)CC3CCC2C3)n1 (stereo partly shown) [Example 71] | 800 to 5000 nM | 80 to 500 nM
23 | CC1(C)[C@H](C(=O)O)C[C@H]1C(=O)N[C@@H](Cc1ccc(NC(=O)c2c(Cl)cccc2Cl)cc1)C(=O)O [Example 102, (1R-trans)-N-[(3-Carboxy-2,2-dimethylcyclobutyl)carbonyl]-4-[(2,6-dichlorobenzoyl)amino]-L-phenylalanine] | ≤ 800 nM | 80 to 500 nM
